US5330983A, “14-O-p-chlorobenzoylaconine and analgesic/anti-inflammatory agent containing the same” (priority 1991, dated 1994)
Where a name gives a salt, the structure may show the parent alone.

Tests used:
[1] = test system: Male mice of the Std:ddY Strain; assay: Analgesic activity by the phenylquinone-induced writhing method; type: in vivo; settings: phenylquinone i.p., counted for 15 min, n = 8~10
Protocol: Measurement of Analgesic Activity by the Phenylquinone-Induced Writhing Method
Male mice of the Std:ddY Strain (20-25 g), which were fasted for one night before the initiation of the experiment, were used. Test compound hardly soluble in water was used in 3% suspension in gum arabic. Test compound taking a salt form was used in aqueous solution. 0.03% phenylquinone in 0.5% ethanol solution was injected i.p. (10 ml/kg) at 2 hours and 55 minutes after the compound was administered p.o. After 5 minutes, the number of writhings was counted for a period of 15 minutes.

[2] = test system: Male mice of the Std:ddY Strain; assay: Analgesic activity by the tail-pressure method; type: in vivo
Protocol: Measurement of Analgesic Activity by the Tail-Pressure Method
Male mice of the Std:ddY Strain (20-25 g), which were fasted for one night before the initiation of the experiment, were used. Test compound hardly soluble in water was used in 3% suspension in gum arabic. Test compound taking a salt form was used in aqueous solution. Experiments were made with a tail-pressure apparatus. Before the administration of test compounds, the pain threshold was measured twice at intervals of 30 minutes and those mice indicating a pain threshold of 30 to 80 mmHg were selected and used. The pain threshold of each mouse was measured at 1, 3 and 5 hours after test compounds were administered p.o. The results were described as a percentage of the pain threshold after the treatment with test compound relative to that before the treatment with test compound.

[3] = test system: Male mice of the Std:ddY Strain; assay: Analgesic activity by the acetic acid-induced writhing method; type: in vivo; settings: acetic acid i.p., counted for 10 min, n = 10
Protocol: Measurement of Analgesic Activity by the Acetic Acid-Induced Writhing Method
Male mice of the Std:ddY Strain (20-25 g), which were fasted for one night before the initiation of the experiment, were used. Test compound hardly soluble in water was used in 3% suspension in gum arabic. Test compound taking a salt form was used in aqueous solution. 0.7% acetic acid in 0.9% physiological saline solution was injected i.p. (10 ml/kg) at 2 hours and 50 minutes after the test compound was administered p.o. After 10 minutes, the number of writhing movements was counted for a period of 10 minutes.

[4] = test system: Male mice of the Std:ddY Strain; assay: in vivo; settings: p.o., mortality during 72 hours, Litchfield-Wilcoxon, 4320 min
Text: (§1) EXPERIMENT EXAMPLE 6 (ACUTE TOXICITY)
(§2) Male mice of the Std:ddY Strain (20-25 g), which were fasted for one night before the initiation of the experiment, were used. Test compound hardly soluble in water was used in 3% suspension in gum arabic. Test compound taking a salt form was used in aqueous solution.

[5] = test system: Male mice of the Std:ddY Strain; assay: Analgesic activity by the hot plate method; type: in vivo; settings: 52° C. plate
Protocol: Measurement of Analgesic Activity by the Hot Plate Method
Male mice of the Std:ddY Strain (20-25 g), which were fasted for one night before the initiation of the experiment, were used. Test compound hardly soluble in water was used in 3% suspension in gum arabic. Test compound taking a salt form was used in aqueous solution. Mice were placed on a cyrindric hot plate (diameter: 22 cm, height: 11 cm) made of copper which was fixed in a water bath adjusted to 52° C. so that each animal's four paws came into contact with the plate and the time taken to show the nociceptive response (jumping and licking) as an index of pain was measured. Mice showing response times above 25 seconds were excluded from the experiment. The analgesic activity of the compound was measured at 1, 3 and 5 hours after test compound was administered p.o. The results are shown in Table 4.

[6] = test system: Male rats of the Wistar strain; assay: Antiinflammatory activity by the carrageenin-induced hind paw edema; type: in vivo; settings: 100 mg/kg p.o.
Protocol: Measurement of Antiinflammatory Activity by the Carrageenin-Induced Hind Paw Edema
Male rats of the Wistar strain (5 weeks old, 120-130 g), which were fasted for one night before the initiation of the experiment, were used. One hour after the oral administration of test compound, λ-carrageenin (1%) was injected s.c. under the plantar surface of the right hind paw. Thereafter, at one hour intervals for 6 hours, the volume of the paw was measured using an apparatus therefor. The results were described as a swelling rate (%) calculated using the following equation:
(R-L)×100/L=swelling rate (%)
R: the volume of the right hind paw
L: the volume of the left hind paw

in vivo = assay: in vivo; set-up: species or system mice (Std:ddY); settings: mouse, in vivo, po; mortality during 72 hours; Litchfield-Wilcoxon
Text: as §1, §2

Property and solubility = type: physicochemical

Structure (SMILES) | The number of writhings, mean ± S.E. ([1]; 3 mg/kg p.o.) | The number of writhings, mean ± S.E. ([1]; 10 mg/kg p.o.) | The number of writhings, mean ± S.E. ([1]; 30 mg/kg p.o.) | Pain threshold (%, mean ± S.E.), posttreatment relative to pretreatment ([2]; 100 mg/kg p.o., 1 h) [%] | Pain threshold (%, mean ± S.E.), posttreatment relative to pretreatment ([2]; 100 mg/kg p.o., 3 h) [%] | Pain threshold (%, mean ± S.E.), posttreatment relative to pretreatment ([2]; 100 mg/kg p.o., 5 h) [%] | Pain threshold (%, mean ± S.E.), posttreatment relative to pretreatment ([2]; 300 mg/kg p.o., 1 h) [%] | Pain threshold (%, mean ± S.E.), posttreatment relative to pretreatment ([2]; 300 mg/kg p.o., 3 h) [%] | Pain threshold (%, mean ± S.E.), posttreatment relative to pretreatment ([2]; 300 mg/kg p.o., 5 h) [%] | The number of writhings, mean ± S.E. ([3]; 3 mg/kg p.o.) | The number of writhings, mean ± S.E. ([3]; 10 mg/kg p.o.) | The number of writhings, mean ± S.E. ([3]; 30 mg/kg p.o.) | Pain threshold (s, mean ± S.E.) ([5]; 100 mg/kg p.o., 1 h) [s] | Pain threshold (s, mean ± S.E.) ([5]; 100 mg/kg p.o., 3 h) [s] | Pain threshold (s, mean ± S.E.) ([5]; 100 mg/kg p.o., 5 h) [s] | Pain threshold (s, mean ± S.E.) ([5]; 300 mg/kg p.o., 1 h) [s] | Pain threshold (s, mean ± S.E.) ([5]; 300 mg/kg p.o., 3 h) [s] | Pain threshold (s, mean ± S.E.) ([5]; 300 mg/kg p.o., 5 h) [s] | Swelling rate (%, mean ± S.E.) ([6]; 1 h after carrageenin) [%] | Swelling rate (%, mean ± S.E.) ([6]; 2 h after carrageenin) [%] | other results
CCN1C[C@]2(COC)[C@H](O)C[C@H](OC)[C@]34C1[C@H]([C@H](OC)[C@H]23)[C@]1(O)[C@H]2[C@@H](OC(=O)c3ccc(Cl)cc3)[C@](O)(C[C@H]24)[C@@H](OC)[C@@H]1O [14-O-p-chlorobenzoylaconine tartrate] | 21.1 ± 2.4 | 18.3 ± 2.2 | 15.7 ± 2.7 | 102.6 ± 3.4 | 141.1 ± 8.3 | 128.0 ± 4.9 | 147.0 ± 7.8 | 240.4 ± 25.0 | 202.9 ± 19.7 | 17.8 ± 2.5 | 15.5 ± 2.3 | 10.7 ± 2.1 | 17.3 ± 2.2 | 26.7 ± 3.2 | 24.7 ± 2.1 | 18.7 ± 1.7 | 42.5 ± 11.0 | 25.7 ± 2.7 | 16.0 ± 3.6 | 31.5 ± 3.1 | LD50 [4]: > 1000 mg/kg; Swelling rate (%, mean ± S.E.) ([6]; 3 h after carrageenin): 47.3 ± 7.4%; Swelling rate (%, mean ± S.E.) ([6]; 4 h after carrageenin): 56.1 ± 2.0%; Swelling rate (%, mean ± S.E.) ([6]; 5 h after carrageenin): 49.6 ± 5.0%; Swelling rate (%, mean ± S.E.) ([6]; 6 h after carrageenin): 57.6 ± 9.0%
CCN1C[C@]2(COC)[C@H](O)C[C@H](OC)[C@]34C1[C@H]([C@H](OC)[C@H]23)[C@]1(O)[C@H]2[C@@H](OC(=O)c3ccc(Cl)cc3)[C@](O)(C[C@H]24)[C@@H](OC)[C@@H]1O [14-O-p-chlorobenzoylaconine] | 20.1 ± 3.6 | 17.3 ± 2.8 | 15.9 ± 3.5 | 100.4 ± 2.5 | 129.6 ± 10.3 | 108.0 ± 6.0 | 120.0 ± 7.3 | 182.0 ± 21.7 | 166.0 ± 20.1 | 19.8 ± 2.5 | 17.3 ± 2.4 | 12.9 ± 3.7 | 21.6 ± 2.2 | 21.6 ± 2.0 | 27.6 ± 0.9 | 22.2 ± 1.5 | 38.4 ± 3.3 | 24.0 ± 1.6 | 22.4 ± 8.0 | 28.0 ± 2.4 | LD50 at 72 h (in vivo): > 1000 mg/kg; LD50 ([4]; listed as compound of the formula (I)): ≥ 1,000 mg/kg; Solubility in organic solvents (Property and solubility; ether, chloroform, benzene, methanol, ethanol, acetone, ethyl acetate, pyridine and dimethyl sulfoxide): Soluble; Solubility in hexane and water (Property and solubility; hexane and water): Insoluble; Swelling rate (%, mean ± S.E.) ([6]; 3 h after carrageenin): 51.0 ± 2.8%; Swelling rate (%, mean ± S.E.) ([6]; 4 h after carrageenin): 58.6 ± 2.4%; Swelling rate (%, mean ± S.E.) ([6]; 5 h after carrageenin): 66.8 ± 3.7%; Swelling rate (%, mean ± S.E.) ([6]; 6 h after carrageenin): 72.9 ± 5.3%
